pIC50: −log10 of the molar value.
Assays:
[1] = in vivo; cited from earlier work
[2] = target: central muscarinic binding site; test: RCMD screening assay: inhibition of radio-labeled cis-methyldioxolane (agonist) binding, rat cerebral cortex tissue; conditions: R3 is hydrogen, double bond: No; for pIC50: rat cerebral cortex; for % Inhib. RCMD: @ 10^-7 M
Experimental: (§1) The biological activity of compounds of the present invention was evaluated using a number of tests. The activity of compounds of this invention as central muscarinic binding site agonists and antagonists was measured. In the RQNB screening assay, which is described more fully by Mark Watson, et al, J. Pharmocol. Exp. Ther., 237 (2): 411 (1986), rat cerebral cortex tissue was treated with radio-labeled quinuclidinyl benzilate, a known muscarinic binding site antagonist. The % inhibition concentration of test compound required to inhibit 50% of the binding of this muscarinic antagonist was then determined.
Similarly, in the RCMD screening assay, described more fully by T. W. Vickeroy, et al, J. Pharmacol. Exp. Ther., 229 (3): 747 (1984), rat cerebral cortex tissue was treated with radio-labeled cis-methyldioxolane,a known muscarinic binding site agonist. The concentrations of test compounds required to inhibit 50% of the binding of this muscarinic agonist were then determined.

[3] = target: central muscarinic binding site; test: RQNB screening assay: inhibition of radio-labeled quinuclidinyl benzilate (antagonist) binding, rat cerebral cortex tissue; conditions: R3 is hydrogen, double bond: No; for pIC50: rat cerebral cortex; for % Inhib. RQNB: @ 10^-6 M
Experimental: as §1

laboratory rats = test: SIS, scopolamine induced swimming test; format: in vivo, rat; conditions: for reversal of scopolamine-induced swimming hyperactivity: rats given scopolamine
Experimental: In a second screening assay, designated SIS, the scopolamine induced swimming test, the ability of representative compounds of the present invention to reverse the hyperactive swimming behavior of laboratory rats given scopolamine was assessed. In this test, untreated rats will generally swim distances between 20 to 30 meters during a five minute test period. […] The effect of scopolamine is centrally mediated; the ability of a test compound to reverse the hyperactive swimming behavior induced by scopolamine is thus a measure of the central cholinergic activity of the compound.

[4] = test system: patients clinically diagnosed as having presenile primary degenerative dementia; conditions: cited from earlier work
[5] = test system: Aged humans and nonhuman primates; conditions: aged humans and nonhuman primates with decreased cognition; cited from earlier work

Nc1ccncc1N [3,4-diaminopyridine]
age-related cognitive deficits [1]: ameliorate age-related cognitive deficits

C#CCON=CC1CN2CCC1CC2 (stereo not drawn) [R1 = Hydrogen, R2 = 2-Propynyl, 1-Azabicyclo[2.2.2]octane-3-carboxaldehyde, O-2-propynyloxime]
pIC50 [2]: 7.57 | pIC50 [3]: 6.46

C=CCON=CC1CN2CCC1CC2 (stereo not drawn) [R1 = Hydrogen, R2 = Allyl, 1-Azabicyclo[2.2.2]octane-3-carboxaldehyde, O-2-propenyloxime]
pIC50 [2]: 6.93 | pIC50 [3]: 6.84

CON=CC1CN2CCC1CC2 (stereo not drawn) [R1 = Hydrogen, R2 = Methyl, 1-Azabicyclo[2.2.2]octane-3-carboxaldehyde, O-methyloxime]
pIC50 [2]: 7.93 | ED50 (laboratory rats; Rattus norvegicus, PO, laboratory rats, read-out: ED50 required to demonstrate reversal of the scopolamine-induced hyperactive swimming activity): 1.8 mg/kg | pIC50 [3]: 5.86

C#CCON=C(C)C1CN2CCC1CC2 (stereo not drawn) [R1 = Methyl, R2 = 2-Propynyl, Ethanone,1-(1-Azabicyclo[2.2.2]oct-3-yl)-, O-2-propynyloxime]
% Inhib. RCMD [2]: 78% | % Inhib. RQNB [3]: 81%

CON=C(C)C1CN2CCC1CC2 (stereo not drawn) [R1 = Methyl, R2 = Methyl, Ethanone,1-(1-Azabicyclo[2.2.2]oct-3-yl)-, O-methyloxime]
% Inhib. RCMD [2]: 90% | % Inhib. RQNB [3]: 54%

COC(=O)C1=CCCN(C)C1 [arecoline, methyl ester of 1,2,5,6-tetrahydro-1-methyl-3-pyridinecarboxylic acid]
reversal of scopolamine-induced swimming hyperactivity (laboratory rats): can be reversed | test of picture recognition ([4]; double blind study): Significant improvement | amelioration of symptoms of cognitive disorders ([4]; patients with presenile primary degenerative dementia): effective in ameliorating some of the symptoms of cognitive disorders

CNC(=O)Oc1ccc2c(c1)[C@]1(C)CCN(C)[C@@H]1N2C [physostigmine]
reversal of scopolamine-induced swimming hyperactivity (laboratory rats): can be reversed | memory [5]: improved memory

CN1[C@@H]2C[C@@H](OC(=O)[C@H](CO)c3ccccc3)C[C@H]1[C@@H]1O[C@@H]12 [scopolamine]
increase of swimming distance above baseline values (laboratory rats; scopolamine 0.1 mg/kg, five minute test period): 75-125%

From patent US4937239A, “Azabicycloalkane oxime & azabicycloalkene oxime muscarinic agents” (Warner-Lambert Company, priority 1989, dated 1990)
